From US5554636A, “N-acylated 4-hydroxphenylamine derivatives with analgesic properties and pharmaceutical compositions containing them” (priority 1995, dated 1996)

What was measured:
[1] = system: writhes produced by intraperitoneal acetic acid in CD-1 mice; test: acetic acid writhing test; type: in vivo, CD-1 mice (Charles-River); settings: oral; for ED50: Mus musculus, 25 min, 0.4% acetic acid i.p. 25 minutes later
Method: (§1) Analgesic activity was measured in CD-1 mice (Charles-River) on the basis of the following three methods:
(§2) The third method consists in measuring the number of writhes performed by a mouse as a manifestation of the pain produced by an intraperitoneal injection of 10 mL/kg of 0.4% acetic acid solution. […] Following oral administration of each compound, the mice (groups of 8 or more) received, 25 minutes later, an intraperitoneal injection of 10 mL/kg of 0.4% acetic acid. The number of writhes was counted 5-15 minutes after the injection of acetic acid.

[2] = system: yeast-induced pyretic response in Sprague-Dawley rats; test: antipyretic activity (yeast-induced temperature increase); type: in vivo; settings: oral; for antipyretic effect: at the doses studied
Method: Antipyretic activity was determined in Sprague-Dawley rats weighing 130-220 g. The animals were injected subcutaneously with a 15% suspension of yeast dissolved in saline solution (1 mL/100 g body weight). Body temperature was measured by means of a rectal thermistor connected to a Cole-Palmer remote thermometer. The temperature at which the experiment was started was the temperature determined 2 hours after the administration of yeasts. Temperature measurements were subsequently made in animals to which paracetamol (standard) or the test compound was administered orally (Suspension K, Bioserve). The results, expressed as the percentage increase in temperature from the baseline value to that obtained 6 hours after the subcutaneous administration of yeast, are given in FIG. 4.

[3] = solubility remark in hepatotoxicity study; type: physicochemical
Method: (§3) For the hepatotoxicity study, mice were kept fasted overnight. The following morning, the compounds were administered orally under ether anesthesia. […] Paracetamol was dissolved in 0.5% tragacanth in saline solution. 24 hours after administration of the compounds, blood was withdrawn from the orbital plexus of the mice anesthetized with ether, and placed in heparinized capillary tubes. The samples were centrifuged at 2000 rpm for 10 minutes, and the plasma glutamic-oxaloacetic transaminase (GOT) and glutamicpyruvic transaminase (GPT) levels were determined spectrophotometrically using Sigma kits. The number of animals used in each group is indicated within each column.

[4] = system: plasma GPT and GOT transaminase levels; settings: mouse, in vivo
Method: (§4) Toxicity studies were based on the measurement of two parameters: mortality and hepatotoxicity.
as §3

[5] = system: pain response (hotplate) in CD-1 mice; test: hotplate analgesic test; type: in vivo, CD-1 mice (Charles-River); settings: for analgesic activity in hotplate test (words): mice, oral
Method: as §1
The second method employed is the hotplate method (Wolfe, G. and MacDonald, A. D., J. Pharmacol. Exp. Ther. 80, 300, 1944). The mouse is placed on a plate at 54° C., and the latency time of withdrawal of a hind foot or a jump is measured. Groups of 10 mice, to which the compounds were administered orally at the doses indicated as abscissae, were subjected to the hotplate test before and at the end of 30 and 60 minutes following administration of the compounds. The mean latency at 30 and 60 minutes minus the baseline latency is plotted as ordinates.

mice = test: mortality after oral administration; settings: summary statement
Method: as §4
Mortality was determined by means of the oral administration of 1 g/kg of paracetamol or the test compound (in Suspension K, Bioserve). For this purpose, the number of mice surviving 18 hours after the administration of each compound was counted.

[6] = system: pain response (tail flick) in CD-1 mice; test: tail flick analgesic test; type: in vivo, CD-1 mice (Charles-River); settings: for analgesic activity in tail flick test: mice, oral
Method: as §1
In the tail flick method (D'Amour, F. E., Smith, D. L., J. Pharmacol. Exp. Ther. 72, 74, 1941), the tail of each mouse is exposed to a concentrated light beam; when the animal feels pain, it removes its tail abruptly from said beam, and the latency time of this flick response is measured. The compound indicated by each symbol was administered orally to groups of 10 mice at the doses indicated as abscissae. The analgesia was quantified before and 15, 30, 60 and 120 minutes after the administration of each compound. The peak activity (30 minutes) was plotted as the percentage of mice in which the latency time for flicking the tail was at least doubled.

[7] = system: pain response in CD-1 mice; test: overall analgesic activity (tail flick, hotplate and acetic acid tests); type: in vivo, CD-1 mice (Charles-River); settings: oral
Method: as §1, §2

Compound	ED50 [1]	analgesic activity in acetic acid test [1]	antipyretic effect [2]	antipyretic effect ([2]; listed as Example I)	solubility [3]	hepatotoxicity [4]	analgesic activity in hotplate test (words) [5]	toxicity compared with paracetamol (mice)	analgesic activity in tail flick test [6]	analgesic profile / analgesic activity [7]	analgesic profile / analgesic activity ([7]; listed as Example I)	ED50 ([2]; Rattus norvegicus, yeast s.c., read-out: ED50, reduction of pyretic response)	analgesic activity in hotplate test (words) ([5]; listed as paracetamol)	ED50 ([5]; Mus musculus, po, read-out: ED50, hotplate test)	ED50 ([6]; Mus musculus, po, read-out: ED50, tail flick test)
O=C(CN1C(=O)c2ccccc2S1(=O)=O)Nc1ccc(O)cc1 [Example 1, 2-[2,3-Dihydro-3-oxo-1,2-benzisothiazol-2-yl 1,1-dioxide]-N-(4-hydroxyphenyl)acetamide]	121 mg/kg	displayed an analgesic effect	did not display antipyretic effects	not possessing antipyretic effects	poor solubility	lacks hepatotoxicity	did not display activity	much lower toxicity	did not display activity	analgesic profile identical to that of paracetamol	analgesic activity equivalent to that of paracetamol				
CC(=O)Nc1ccc(O)cc1 [Paracetamol]	130 mg/kg	effective	reduced the pyretic response in a dose-dependent manner				minimally active		did not display activity			77.7 mg/kg	did not display activity		
CN1CC[C@]23c4c5ccc(O)c4O[C@H]2[C@@H](O)C=C[C@H]3[C@H]1C5 [Morphine]		active					active		active					22.3 mg/kg	28.5 mg/kg
